Test results published in US8110592B2, “Agrochemical formulations that can be dispersed in water containing polyalkoxytriglycerides as penetration enhances” (priority 2006, dated 2012).

System: apple leaf cuticles
Assay: Penetration of active compounds through enzymatically isolated apple leaf cuticles
Assay type: in vitro ADME, apple trees of the Golden Delicious variety
Description: Penetration* of spirotetramate with penetrants according to the invention compared to the control without penetrant and the rapid-action uptake enhancer Genapol® X150. All penetrants employed at 0.5 g/l.
This test measured the penetration of active compounds through enzymatically isolated cuticles of apple leaves.
The leaves used were cut in the fully developed state from apple trees of the Golden Delicious variety. The cuticles were isolated as follows: • first of all, leaf discs labelled on the underside with dye and formed by punching were filled by means of vacuum infiltration with a pectinase solution (0.2% to 2% strength) buffered to a pH of between 3 and 4, • then sodium azide was added and • the leaf discs thus treated were left to stand until the original leaf structure broke down and the non-cellular cuticles underwent detachment.
Thereafter only those cuticles from the top leaf sides that were free from stomata and hairs were used further. They were washed a number of times in alternation with water and with a buffer solution, pH 7. The clean cuticles obtained were, finally, applied to Teflon plaques and smoothed and dried with a gentle jet of air.
In the next step the cuticular membranes obtained in this way were placed in stainless steel diffusion cells (transport chambers) for the purpose of membrane transport investigations. For these investigations the cuticles were placed centrally using tweezers on the edges of the diffusion cells, which were coated with silicone grease, and sealed with a ring, which was likewise greased. The arrangement was chosen so that the morphological outer side of the cuticles was directed outwards, in other words to the air, while the original inner side was facing the interior of the diffusion cell.
The diffusion cells were filled with a 1% phospholipid suspension. Penetration was determined by applying in each case 10 μl of the spray liquor of the composition below, containing radiolabeled active compound in the stated concentrations, to the outer face of the cuticles. The spray liquor is prepared using local tap water of average hardness.
After the spray liquors had been applied, the water was evaporated and then the chambers were inverted and placed in thermostatted troughs, in which the temperature and air humidity over the cuticles was adjustable by means of a gentle air stream onto the cuticles with the spray coating (20° C., 60% rh). At regular intervals, an autosampler took aliquots which were subjected to measurement in a scintillation counter.
Facilitation of the penetration of various active compounds* by penetrants according to the invention exemplified by Crovol® CR70G in comparison to the control.

[1] = spirotetramate 0.2 g/l, control without additive
[2] = with 0.5 g/l Crovol CR70G, after 24 hours
[3] = with 0.5 g/l Crovol CR70G, after 72 hours
[4] = without Crovol CR70G, after 24 hours
[5] = without Crovol CR70G, after 72 hours

Row | SMILES | % penetration (after hours) (apple (Malus domestica), 6 h) [%] | % penetration (after hours) (apple (Malus domestica), 18 h) [%] | % penetration (after hours) (apple (Malus domestica), 24 h) [%] | % penetration (after hours) (apple (Malus domestica), 48 h) [%] | % penetration after 24 h [1] [%] | % penetration after 3 days [1] [%] | % penetration (after hours) [2] [%] | % penetration (after hours) [3] [%] | % penetration (after hours) [4] [%] | % penetration (after hours) [5] [%]
1 | CS(=O)(=O)c1ccc(C(=O)C2C(=O)CCCC2=O)c(Cl)c1COCC(F)(F)F [Tembotrione, tembotrione] | <1 | <1 |  |  |  |  |  |  |  | 
2 | O=[N+]([O-])NC1=NCCN1Cc1ccc(Cl)nc1 [Imidacloprid, imidacloprid] |  |  | 0.7 | 2.2 |  |  |  |  |  | 
3 | CCOC(=O)OC1=C(c2cc(C)ccc2C)C(=O)N[C@]12CC[C@@H](OC)CC2 [spirotetramate] |  |  |  |  | 0.1 | 0.3 | 5.8 | 40.5 | 0.1 | 0.3
4 | CC(C)(C)C(O)(CCc1ccc(Cl)cc1)Cn1cncn1 (centres unmarked) [Tebuconazole, tebuconazole] |  |  |  |  |  |  | 6.0 | 31.5 | <2 | <2
